According to patent US20200054649A1, “SKELETAL MUSCLE HYPERTROPHY INDUCERS” (CYTOO, priority 2016, published 2020):
pEC50: −log10 of the molar value. Where two headings read alike, the source gives them in different places.

What was measured:
[1] = test system: Human primary myoblasts (HSMM) from healthy Donor 3, myotubes; test: MyoScreen hypertrophy assay on human primary myoblasts/myotubes, healthy Donor 3; assay type: cell-based; details: for pEC50 / activity at 10 µM: Homo sapiens
Method: (§1) Healthy donor primary skeletal cells (Donor 1 and Donor 3) were Clonetics™ Human Skeletal Muscle Myoblasts (HSMM).
(§2) Hypertrophy and Atrophy Rescue assays were performed using an in vitro fully automated human myotube model called MyoScreen (Cytoo, France). This model relies on a tight control of the microenvironment that guides the differentiation of human primary myoblasts. Myotubes formed on MyoScreen™ micropatterns present a high level of maturation together with a highly standardized morphology.
(§3) Human primary myoblasts from donors 1, 3 and Z were seeded in MyoScreen™ micropatterned 96-well plates (Cytoo, France), let them adhere for 24 h in growth medium, then run the differentiation in a low horse serum medium for at least 5 days.
(§4) At Day0, MyoScreen™ plates (Cytoo, France) containing micropatterns were pre-filled with 200 μl/well of growth medium and stored in the incubator at 37° C. Human primary myoblasts were detached from the flasks, count, and seeded into the plates with 15 000 cells per well in 100 μl of growth medium.
(§5) At Day 1, the growth medium was changed for a differentiation medium, 300 μl/well (DMEM with 0.1% horse serum) in which myoblasts started differentiating and forming myotubes.
(§6) At Day 2, the differentiation medium was changed. Then candidate compounds were diluted with differentiation medium and transferred into the plate. The final concentration of DMSO should be not higher than 0.1%. At least 6 wells were treated with the vehicle as a basal control, and 6 wells were treated with IGF-1 at 100 ng/ml as positive hypertrophy control.
(§7) At Day 6, cells were fixed with formalin 5% for 30 min at room temperature, then permeabilized with Triton X-100 at 0.1% in PBS for 15 min, and blocked with PBS+BSA 1% for 20 minutes. Myotubes were incubated with first antibody against Troponin T in blocking buffer for 1 h30, washed three times with PBS, incubated with secondary antibody and Hoescht (1/10 000) for 1 h30, and washed three times with PBS.
(§8) Images were acquired at 10× magnification with an Operetta High Content Imaging System. Image processing and analysis were performed with dedicated algorithms developed on the Acapella High Content Imaging Software (Perkin Elmer) by CYTOO. Eleven fields per well were acquired.
(§9) First, segmentation of myotubes and nuclei were done using respectively the Troponin T staining intensity and the Hoechst staining. One to two myotubes per micropattern were usually identified (a myotube is a troponin T staining area that includes at least 2 nuclei). The threshold of segmentation was set-up in order to avoid detecting the background noise and eliminate aberrant small myotube structures. At the end of this first step, specific readouts were calculated in the whole well, like the nuclei count and the fusion index (percentage of nuclei included in troponin T staining). Usually around 50 to 60 myotubes were detected per well in a control condition.
(§10) Then, an image clean-up step was performed on the Troponin T images in order to remove myotubes that touch the border of the image. The final valid myotubes were used to extract myotube morphology parameters including the myotube width and area, and the number of nuclei per myotube.
(§11) Nuclei Count, Fusion Index, Mean myotube Area and Number of nuclei per myotube have been validated as relevant and sensitive readouts of myotube differentiation as well as atrophic and hypertrophic induction.
A primary screening was run to identify hypertrophy compounds that increase the myotube differentiation and size. Candidate compounds were tested at 10 μM in monoplicate on Donor 3 cells.
A retest was run, by cherry picking (same compound batch as primary screening): each hit was tested in the same conditions as in the Primary Screening (Donor 3, 10 μM) in six well replicates.
Dose response assays were performed on three donors (Healthy Donors 3 and 1, DMD Donor Z): 8 doses of candidate compounds between 33 μM and 0.015 μM, 2 well replicates per dose. […]

[2] = test system: Human primary myoblasts (HSMM) from healthy Donor 1, myotubes; test: MyoScreen hypertrophy assay, dose response, healthy Donor 1; assay type: cell-based; details: first dose response assay; for pEC50: Homo sapiens, not defined precisely
Method: as §1, §2, §3, §4, §5, §6, §7, §8, §9, §10, §11
(§12) Dose response assays were performed on three donors (Healthy Donors 3 and 1, DMD Donor Z): 8 doses of candidate compounds between 33 μM and 0.015 μM, 2 well replicates per dose.
(§13) Compounds of interest were tested several times in dose response, with triplicate of wells per dose. Results were normalized to the control condition (basal level), and plotted using GraphPadm Prism. The readout “nuclei count” allowed detecting any toxicity effect. The readouts “fusion index” and “myosin area” were used to determine the EC50 value using the GrapgPad Prism fitting solution. […]

[3] = test system: Human primary myoblasts from DMD (Duchenne muscular dystrophy) Donor Z, myotubes; test: MyoScreen hypertrophy assay, dose response, DMD Donor Z; assay type: cell-based; details: for DMD myotube size and differentiation / pEC50 / % Activity: Donor Z (DMD); for DMD myotube size and differentiation: dose response; for pEC50: Homo sapiens, not defined precisely; for pEC50 / % Activity: first dose response assay; for activity: additional dose response assay, Donor Z, Mifepristone at 300 nM, IGF-1 positive control
Method: In addition, cells from a DMD (Duchenne muscular dystrophy) donor were sourced (Donor Z) and used to confirm primary hits.
as §2, §3, §4, §5, §6, §7, §8, §9, §10, §11, §12, §13

[4] = test system: Myotubes from the healthy donor 3 atrophied with IL-1β, TNF-α or Myostatin; test: MyoScreen atrophy rescue assay (IL-1β, TNF-α, myostatin as atrophy inducers); assay type: cell-based, human; set-up: key: +++: total rescue; ++: partial rescue; +: low rescue; details: nestorone 1 μM, corticosterone 3 μM, mifepristone 1 μM; for atrophy rescue, TNF-alpha: atrophy inducer TNF-α 2 ng/mL; for atrophy rescue, Myostatin: atrophy inducer myostatin 150 ng/mL
Method: as §2, §3, §4, §5, §6
For Atrophy Rescue assay, one hour after candidate compound addition, atrophy inducers were added at the following final concentration: 150 ng/mL of myostatin, 25 ng/mL of […] and 2 ng/mL of TNF-α.
as §7, §8, §9, §10, §11
Atrophy Rescue assays were performed in the presence of atrophy inducers, i.e. TNF-α, IL-1β and Myostatin. Each compound was tested in triplicate of wells at 1 μM for nestorone, 3 μM for corticostestrone and 1 μM for mifepristone.
Myotubes from the healthy donor 3 were atrophied using different inducers: inflammation cytokines IL-1β and TNF-α and SMAD pathway activator Myostatin. The ability of each compound to block the atrophy induced by these different atrophy inducers was determined.

[5] = test system: Myotubes from the healthy donor 3 atrophied with IL-1β, TNF-α or Myostatin; test: as above; assay type: cell-based, human; set-up: key: +++: total rescue; ++: partial rescue; +: low rescue; details: atrophy inducer IL-1β 25 ng/mL, nestorone 1 μM, corticosterone 3 μM, mifepristone 1 μM
[6] = first dose response assay, Donor 3, not defined precisely
[7] = second dose response assay, Donor 3, lower concentrations
[8] = Donor 3, compounds at 10 μM, monoplicate, % Activity = myotube fusion index (compound)*100/fusion index (basal control), IGF-1 at 100 ng/ml, read-out: Primary screening (% Activity)
[9] = Donor 3, compounds at 10 μM, six well replicates, % of basal control fusion index, IGF-1 at 100 ng/ml, read-out: Retest (% Activity)
[10] = first dose response assay, Donor 3, 33 μM to 0.015 μM

Row | Compound | pEC50 [1, 6] | pEC50 [1, 7] | activity at 10 µM [1, 8] [%] | activity at 10 µM [1, 9] [%] | % Activity [1, 10] [%] | % Activity [1, 7] [%] | pEC50 [2] | % Activity [2] [%] | DMD myotube size and differentiation [3] | pEC50 [3] | % Activity [3] [%] | atrophy rescue, TNF-alpha [4] | atrophy rescue, Myostatin [4] | atrophy rescue, IL-1 [5] | Primary screening (% Activity) ([1]; Donor 3, compounds at 10 μM, monoplicate, % Activity = myotube fusion index (compound)*100/fusion index (basal control), IGF-1 at 100 ng/ml) [%] | Retest (% Activity) ([1]; Donor 3, compounds at 10 μM, six well replicates, % of basal control fusion index, IGF-1 at 100 ng/ml) [%] | activity [3] [%]
1 | C[C@]12C[C@H](O)[C@H]3[C@@H](CCC4=CC(=O)CC[C@@]43C)[C@@H]1CC[C@@H]2C(=O)CO [Corticosterone] | ~7.00 | 6.70 | 148 | 128 | 114 | 120 | ~6.00 | 134 | significant increase | ~6.30 | 145 | ++ | +++ | ++ | – | – | –
2 | CC(=O)O[C@]1(C(C)=O)CC[C@H]2[C@@H]3C=C(C)C4=CC(=O)CC[C@]4(C)[C@H]3CC[C@@]21C [Megestrol acetate] | – | – | 133 | 125 | – | – | – | – | – | – | – | – | – | – | – | – | –
3 | IGF-1: IGF-1 at 100 ng/ml as positive hypertrophy control | – | – | – | – | 150 | 150 | – | 150 | – | – | 250 | +++ | +++ | +++ | 210 | 190 | 200
4 | CC(=O)[C@H]1CC[C@H]2[C@@H]3CCC4=CC(=O)CC[C@]4(C)[C@H]3CC[C@]12C [Progesterone] | – | – | 137 | 114 | – | – | – | – | – | – | – | – | – | – | – | – | –
5 | CC#C[C@]1(O)CC[C@H]2[C@@H]3CCC4=CC(=O)CCC4=C3[C@@H](c3ccc(N(C)C)cc3)C[C@@]21C [Mifepristone] | ~7.30 | 7.00 | 140 | 173 | 133 | 135 | ~8.30 | 145 | – | – | – | ++ | +++ | +++ | – | – | 156
6 | C=C1C[C@H]2[C@@H]3CCC4=CC(=O)CC[C@@H]4[C@H]3CC[C@]2(C)[C@@]1(OC(C)=O)C(C)=O [Nestorone] | ~7.00 | 6.70 | 153 | 189 | 115 | 133 | ~7.00 | 130 | significant increase | ~7.00 | 181 | + | ++ | ++ | – | – | –
7 | C=C1C[C@H]2[C@@H]3C=C(C)C4=CC(=O)CC[C@]4(C)[C@H]3CC[C@]2(C)[C@@]1(OC(C)=O)C(C)=O [Melengestrol acetate] | – | – | 140 | 140 | – | – | – | – | – | – | – | – | – | – | – | – | –
